In patent EP4696708A1, “PEPTIDE TYROSINE-TYROSINE ANALOG AND USE THEREOF” (The United Bio-Technology (Hengqin) Co., Ltd., priority 2023, dated 2024):
*1 amine or outer side, *2 acyl side, *3 side chain or, on linkers, in order; H or OH if unused. Where a SMILES comes first, the peptide text is derived from it. Side-chain parts run from the residue outwards. [ ]: non-standard residue; d: D form. The star is where a group is joined. C18 diacid = O=C(O)CCCCCCCCCCCCCCCCC(=O)*; γGlu = O=C(O)[C@H](CCC(=O)[*:2])N[*:1]; AEEA = NCCOCCOCC(=O)O; Aib = CC(C)(N)C(=O)O

Key:
hNPY1R = target: T1, hNPY1R (Homo sapiens, UniProt P25929); test: calcium flux assay (FLIPR), in vitro functional activity on human NPY1 receptor; assay type: cell-based; conditions: initial concentration 1 µM, average of at least 3 independent tests
T1 sequence (P25929 1-384): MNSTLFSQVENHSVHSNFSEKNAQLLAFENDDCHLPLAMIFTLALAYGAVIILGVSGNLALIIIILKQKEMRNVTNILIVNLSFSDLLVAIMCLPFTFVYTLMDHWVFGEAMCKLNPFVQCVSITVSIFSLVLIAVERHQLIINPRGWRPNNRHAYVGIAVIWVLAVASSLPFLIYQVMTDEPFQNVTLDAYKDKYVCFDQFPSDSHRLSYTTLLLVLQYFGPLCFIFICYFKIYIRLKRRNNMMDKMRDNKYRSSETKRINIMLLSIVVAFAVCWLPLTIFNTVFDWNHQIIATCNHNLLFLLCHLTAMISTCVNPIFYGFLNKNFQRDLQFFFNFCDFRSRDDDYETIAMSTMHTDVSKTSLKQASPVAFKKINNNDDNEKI
Procedure: • 1) Preparation of test analogue and positive reference agonist: the test analogue was diluted 4-fold to 10 concentrations using Bravo, transferred 900 nL to the analogue plate using Echo, and then added with 30 µL of detection buffer (20 mM HEPES, 1×HBSS, 0.1% casein) to each well. The initial concentration of the test analogue and the positive reference agonist were 1 µM. • 2) The cell plate was removed from the incubator (cell Y1 needs to be removed of the culture medium and added with 20 µL of detection buffer, otherwise they will all be a high signal; it is not necessary for Y5), added with 2*Fluo-4 detection reagent, 20 µL per well, incubated in a 37°C incubator for 50 minutes, and then left to stand at room temperature for 10 minutes. • 3) The cell plate, the analogue plate, and the pipette tip were placed into the FLIPR instrument, the instrument was started, and 10 µL of analogue was transferred from the analogue plate to the cell plate. […] Using the logarithm of the concentration of analogues as the horizontal axis and the activation rate of calcium ion fluorescence signal as the vertical axis, the "Nonlinear regression (curve fit)-log (antigen) vs. response Variable slope" model in GraphPad Prism 5.0 was used for fitting to calculate the EC50 of the sample.

[1] = target: T2, recombinant human NPY2 receptor (Homo sapiens, UniProt P49146); test: cAMP assay, in vitro functional activity on NPY2 receptors (inhibition of Forskolin-induced cAMP production); assay type: cell-based; conditions: HEK 293 cells overexpressing recombinant human NPY2 receptor; average of at least 3 independent tests; read-out: hNPY2R EC50
T2 construct: expressed in transfected cells; host or cells: HEK 293
T2 sequence (P49146 1-381): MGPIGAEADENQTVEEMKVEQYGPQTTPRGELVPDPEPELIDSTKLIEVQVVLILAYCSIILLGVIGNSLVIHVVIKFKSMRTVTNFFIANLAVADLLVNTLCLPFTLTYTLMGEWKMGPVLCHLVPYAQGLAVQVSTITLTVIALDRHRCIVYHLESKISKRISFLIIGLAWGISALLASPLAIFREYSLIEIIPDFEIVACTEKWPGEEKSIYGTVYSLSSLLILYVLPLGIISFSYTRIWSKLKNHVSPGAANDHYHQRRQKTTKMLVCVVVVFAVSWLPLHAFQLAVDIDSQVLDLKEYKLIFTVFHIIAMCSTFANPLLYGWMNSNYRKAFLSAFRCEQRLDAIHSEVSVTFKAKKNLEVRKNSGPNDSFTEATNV
Procedure: After addition, they were centrifuged at 1000 rpm for 1 minute. • 5) 5 µL of 2 µM Forskolin (prepared with detection buffer) was added to a 384-well cell reaction plate using Multidrop Combi and centrifuged at 1000 rpm for 1 minute. 5 µL of detection buffer containing cells was added to a 384-well reaction plate, ensuring a cell count of 3000 cells per well. […] It was covered with a lid and incubated at room temperature in the dark for 1 hour. • 7) After incubation for 1 hour, it was placed in an EnVision microplate reader for measurement.

[2] = plasma pharmacokinetics in SD rats (LC-MS/MS); assay type: in vivo; conditions: rat, sc, male rats, single subcutaneous 0.492 mg/kg
Procedure: (§1) Blood samples were collected from each animal at each time point after administration, and the blood samples were centrifuged at around 4°C, 3200 g, for 10 minutes. Plasma was collected separately, transferred to pre-labeled 96-well plates or polypropylene tubes, speedily frozen on dry ice, and stored at -60°C or lower until LC-MS/MS analysis.
(§2) LC-MS/MS method was adopted to determine the concentration of the measured analogues in blood samples. The data on the changes in plasma concentration over time were plotted into a chart and analyzed using non partitioned methods with Phoenix WinNonlin 6.3 software program. Relevant PK parameters were calculated based on the administration routes.
The plasma pharmacokinetics of PYY analogues in male SD rats were evaluated after a single subcutaneous administration of 0.492 mg/kg Analogue 3. Blood samples were collected from 3 rats at each time point after administration for 0.5h, 1h, 2h, 4h, 8h, 12h, 16h, 24h, 48h, 72h, 96h, 120h, 144h, 168h, extending to 168h. Due to the use of discontinuous sampling to evaluate the kinetics of PYY analogues in rats, the pharmacokinetic parameters of Analogue 3 after a single subcutaneous administration of 0.492 mg/kg were listed using average concentration-time data.

[3] = plasma pharmacokinetics in crab-eating macaques (LC-MS/MS); assay type: in vivo; conditions: monkey, sc, male crab-eating macaques, single subcutaneous 0.246 mg/kg
Procedure: as §1, §2
The plasma pharmacokinetics of PYY analogues in male crab-eating macaques were evaluated after a single subcutaneous administration of 0.246 mg/kg Analogue 3. Blood samples were collected from 2 crab-eating macaques at each time point after administration for 1h, 2h, 4h, 8h, 12h, 24h, 48h, 72h, 96h, 120h, 144h, 168h, 192h, 240h, 288h, 336h, 408h, 504h, extending to 504 hours. Due to the use of discontinuous sampling to evaluate the kinetics of PYY analogues in crab-eating macaques, the pharmacokinetic parameters of Analogue 3 after a single subcutaneous administration of 0.246 mg/kg were listed using average concentration-time data.

CC(C)C[C@H](NC(=O)[C@H](Cc1ccc(O)cc1)NC(=O)[C@H](Cc1c[nH]cn1)NC(=O)[C@H](CCCNC(=N)N)NC(=O)[C@H](CC(C)C)NC(=O)[C@H](CO)NC(=O)C(C)(C)NC(=O)[C@H](Cc1ccc(O)cc1)NC(=O)[C@H](Cc1ccc(O)cc1)NC(=O)[C@H](CCCNC(=N)N)NC(=O)[C@H](CCC(N)=O)NC(=O)[C@H](Cc1c[nH]c2ccccc12)NC(=O)[C@H](CCC(=O)O)NC(=O)[C@H](CCC(=O)O)NC(=O)[C@@H]1CCCN1C(=O)[C@H](CO)NC(=O)C(C)(C)NC(=O)[C@H](CC(=O)O)NC(=O)[C@H](CCC(=O)O)NC(=O)[C@H](CCC(=O)O)NC(=O)[C@@H]1CCCN1C(=O)[C@H](CCCCNC(=O)COCCOCCNC(=O)CC[C@H](NC(=O)CCCCCCCCCCCCCCCCC(=O)O)C(=O)O)NC(=O)[C@H](CCC(=O)O)NC(=O)[C@@H]1CCCN1C(=O)[C@H](CCCCN)NC(=O)[C@@H]1CCCN1)C(=O)N[C@@H](CC(N)=O)C(=O)N[C@@H](Cc1c[nH]c2ccccc12)C(=O)N[C@@H](CC(C)C)C(=O)N[C@H](C(=O)N[C@@H](CCCNC(=N)N)C(=O)N[C@@H](CCC(N)=O)C(=O)N[C@@H](CCCNC(=N)N)C(=O)N[C@@H](Cc1ccc(O)cc1)C(N)=O)[C@@H](C)O [Analogue 1] (H-PKPEK([AEEA-γGlu-C18 diacid])PEED[Aib]SPEEWQRYY[Aib]SLRHYLNWLTRQRY-NH2)
EC50 (hNPY1R): > 50 nM

CC(C)C[C@H](NC(=O)[C@H](CCC(=O)O)NC(=O)[C@H](C)NC(=O)[C@H](Cc1ccc(O)cc1)NC(=O)[C@H](Cc1ccc(O)cc1)NC(=O)[C@H](CCCNC(=N)N)NC(=O)[C@H](CCC(N)=O)NC(=O)[C@H](Cc1c[nH]c2ccccc12)NC(=O)[C@H](CCC(=O)O)NC(=O)[C@H](CCC(=O)O)NC(=O)[C@@H]1CCCN1C(=O)[C@H](CO)NC(=O)[C@H](C)NC(=O)[C@H](CC(=O)O)NC(=O)C(C)(C)NC(=O)[C@H](CCC(=O)O)NC(=O)[C@@H]1CCCN1C(=O)[C@H](CCCCNC(=O)COCCOCCNC(=O)CC[C@H](NC(=O)CCCCCCCCCCCCCCCCC(=O)O)C(=O)O)NC(=O)[C@H](CCC(=O)O)NC(=O)[C@@H]1CCCN1C(=O)[C@H](CCCCN)NC(=O)[C@@H]1CCCN1)C(=O)N[C@@H](CCCNC(=N)N)C(=O)N[C@@H](Cc1c[nH]cn1)C(=O)N[C@@H](Cc1ccc(O)cc1)C(=O)N[C@@H](CC(C)C)C(=O)N[C@@H](CC(N)=O)C(=O)N[C@@H](Cc1c[nH]c2ccccc12)C(=O)N[C@@H](CC(C)C)C(=O)N[C@H](C(=O)N[C@@H](CCCNC(=N)N)C(=O)N[C@@H](CCC(N)=O)C(=O)N[C@@H](CCCNC(=N)N)C(=O)N[C@@H](Cc1ccc(O)cc1)C(N)=O)[C@@H](C)O [Analogue 2]
EC50 (hNPY1R): > 50 nM | EC50 [1]: 0.037 nM

CC(C)C[C@H](NC(=O)[C@H](Cc1ccc(O)cc1)NC(=O)[C@H](Cc1c[nH]cn1)NC(=O)[C@H](CCCNC(=N)N)NC(=O)[C@H](CC(C)C)NC(=O)[C@H](CCC(=O)O)NC(=O)C(C)(C)NC(=O)[C@H](Cc1ccc(O)cc1)NC(=O)[C@H](Cc1ccc(O)cc1)NC(=O)[C@H](CCCNC(=N)N)NC(=O)[C@H](CCC(N)=O)NC(=O)[C@H](Cc1c[nH]c2ccccc12)NC(=O)[C@H](CCC(=O)O)NC(=O)[C@H](CCC(=O)O)NC(=O)[C@@H]1CCCN1C(=O)[C@H](CO)NC(=O)[C@H](C)NC(=O)[C@H](CC(=O)O)NC(=O)C(C)(C)NC(=O)[C@H](CCC(=O)O)NC(=O)[C@@H]1CCCN1C(=O)[C@H](CCCCNC(=O)COCCOCCNC(=O)CC[C@H](NC(=O)CCCCCCCCCCCCCCCCC(=O)O)C(=O)O)NC(=O)[C@H](CCC(=O)O)NC(=O)[C@@H]1CCCN1C(=O)[C@H](CCCCN)NC(=O)[C@@H]1CCCN1)C(=O)N[C@@H](CC(N)=O)C(=O)N[C@@H](Cc1c[nH]c2ccccc12)C(=O)N[C@@H](CC(C)C)C(=O)N[C@H](C(=O)N[C@@H](CCCNC(=N)N)C(=O)N[C@@H](CCC(N)=O)C(=O)N[C@@H](CCCNC(=N)N)C(=O)N[C@@H](Cc1ccc(O)cc1)C(N)=O)[C@@H](C)O [Analogue 3]
AUC(0-inf) [2]: 79.6 µg·h/mL | Cmax [2]: 1940 ng/mL | Tmax [2]: 13.3 h | half-life [2]: 24.7 h | EC50 (hNPY1R): > 50 nM | EC50 [1]: 0.037 nM | AUC(0-inf) [3]: 337 µg·h/mL | Cmax [3]: 1780 ng/mL | Tmax [3]: 12 h | half-life [3]: 126 h
